Data taken from paper PMC7037682, “Herb–Drug Interaction of Red Ginseng Extract and Ginsenoside Rc with Valsartan in Rats” (Molecules, 2020).

How the values were obtained:
[1] = biological target: T1, OATP1B1 (Homo sapiens, UniProt Q9Y6L6); experiment: Inhibition of OATP1B1-mediated [3H]estrone-3-sulfate uptake in HEK293-OATP1B1 cells
T1 sequence (Q9Y6L6 1-691): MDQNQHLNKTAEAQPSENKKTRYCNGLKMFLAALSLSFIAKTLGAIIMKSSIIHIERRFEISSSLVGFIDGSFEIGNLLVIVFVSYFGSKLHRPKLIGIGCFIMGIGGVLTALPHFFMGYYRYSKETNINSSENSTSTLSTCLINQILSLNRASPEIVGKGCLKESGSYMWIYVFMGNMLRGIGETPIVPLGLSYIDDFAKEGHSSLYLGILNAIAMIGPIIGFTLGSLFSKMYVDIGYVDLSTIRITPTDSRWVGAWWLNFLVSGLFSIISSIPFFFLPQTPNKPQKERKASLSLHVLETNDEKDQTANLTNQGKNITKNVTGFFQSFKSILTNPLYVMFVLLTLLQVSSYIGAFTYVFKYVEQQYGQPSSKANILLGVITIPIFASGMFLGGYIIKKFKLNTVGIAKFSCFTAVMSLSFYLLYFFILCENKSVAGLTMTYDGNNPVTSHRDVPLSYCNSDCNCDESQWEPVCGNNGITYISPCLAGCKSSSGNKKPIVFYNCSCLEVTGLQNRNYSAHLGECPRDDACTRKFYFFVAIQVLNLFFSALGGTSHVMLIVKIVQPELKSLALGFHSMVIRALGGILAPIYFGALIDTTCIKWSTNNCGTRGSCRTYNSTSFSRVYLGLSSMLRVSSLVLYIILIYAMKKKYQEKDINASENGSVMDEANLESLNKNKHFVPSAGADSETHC
Protocol: (§1) HEK293 cells overexpressing the OCT1, OCT2, OAT1, OAT3, OATP1B1, and OATP1B3 transporters (HEK293-OCT1, -OCT2, -OAT1, -OAT3, -OATP1B1, and -OATP1B3, respectively) and HEK293-mock cells (Corning Life Sciences; Woburn, MA, USA) were used and characterized as previously described.
(§2) HEK293 cells overexpressing drug transporters and HEK293-mock cells were seeded in poly-D-lysine-coated 96-well plates at a density of 10^5 cells/well and were cultured in DMEM supplemented with 10% FBS, 5 mM non-essential amino acids, and 2 mM sodium butyrate in a humidified atmosphere with 8% CO2 at 37 °C.
(§3) To examine the effects of ginsenosides and typical inhibitors on transporter activity, aliquots (100 μL) of HBSS containing the probe substrate and ginsenosides or typical inhibitors were added to the cells after aspirating pre-incubated HBSS. The concentrations and probe substrates were as follows: 0.1 μM [^3H]MPP^+ for OCT1 and OCT2, 0.1 μM [^3H]PAH for OAT1, 0.1 μM [^3H]ES for OAT3 and OATP1B1, and 0.1 μM [^3H]EG for OATP1B3. […] Then the uptake of probe substrates into HEK293-mock cells and HEK293-OCT1, -OCT2, -OAT1, -OAT3, -OATP1B1, and -OATP1B3 cells in the presence and absence of typical inhibitor or each ginsenoside with previously described concentration range was measured for 5 min. Immediately after placing the plates on ice, the cells were washed three times with 100 μL of ice-cold HBSS, followed by lysing with 50 μL of 10% SDS solution and mixing with 150 μL of Optiphase cocktail solution (Perkin Elmer Inc., Boston, MA, USA). The radioactivity of the probe substrates in the cells was determined using a liquid scintillation counter.
(§4) In the inhibition studies, the uptake rate of substrate by HEK293 cells overexpressing the respective transporters was used as the control (100%) and the uptake rate of substrates in the presence of typical inhibitors or ginsenosides expressed as a percentage of the control. The inhibition data were fitted to an inhibitory effect model using Sigma plot (version 10.0; Systat Software Inc., San Jose, CA, USA). IC50 value indicated the half-maximal inhibitory concentration of the inhibitor.

[2] = biological target: T2, OATP1B3 (Homo sapiens, UniProt Q9NPD5); experiment: Inhibition of OATP1B3-mediated [3H]estradiol-17β-D-glucuronide uptake in HEK293-OATP1B3 cells
T2 sequence (Q9NPD5 1-702): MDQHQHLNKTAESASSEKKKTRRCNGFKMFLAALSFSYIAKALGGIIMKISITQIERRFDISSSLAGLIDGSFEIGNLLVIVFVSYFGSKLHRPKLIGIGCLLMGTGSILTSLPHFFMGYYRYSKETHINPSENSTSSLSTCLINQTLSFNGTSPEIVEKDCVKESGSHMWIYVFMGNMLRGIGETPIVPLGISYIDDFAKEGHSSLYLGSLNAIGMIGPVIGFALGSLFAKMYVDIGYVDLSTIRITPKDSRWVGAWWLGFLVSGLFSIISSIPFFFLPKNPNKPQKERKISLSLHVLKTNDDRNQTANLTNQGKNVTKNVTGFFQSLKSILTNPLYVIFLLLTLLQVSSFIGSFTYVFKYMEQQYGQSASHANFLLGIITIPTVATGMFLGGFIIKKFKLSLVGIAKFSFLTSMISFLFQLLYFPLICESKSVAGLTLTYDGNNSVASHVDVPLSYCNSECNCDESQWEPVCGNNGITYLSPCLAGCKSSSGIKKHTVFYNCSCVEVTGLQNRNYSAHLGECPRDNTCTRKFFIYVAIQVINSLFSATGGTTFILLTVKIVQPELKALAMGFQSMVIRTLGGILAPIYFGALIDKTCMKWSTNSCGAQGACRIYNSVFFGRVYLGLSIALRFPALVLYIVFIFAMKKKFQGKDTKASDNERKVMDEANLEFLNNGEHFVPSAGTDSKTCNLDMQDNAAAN
Protocol: as §1, §2, §3, §4

[3] = design: method as in PMID 25297453, PMID 22139693, PMID 26725427; conditions: rats ref 23, 39, 40; cited from earlier work
[4] = biological target: T2, OATP1B3; experiment: Inhibition of OATP1B3-mediated valsartan uptake in HEK293-OATP1B3 cells; assay type: cell-based; design: host or cells: HEK293; conditions: 5 μM valsartan, 5 min
Protocol: (§5) Transporter mediated uptake of probe substrates or valsartan was calculated by subtracting the uptake rate of probe substrates or valsartan into HEK293-mock cells from that into HEK293 cells expressing respective transporters.

[5] = Literature rifampin plasma concentration in rats after oral 20 mg/kg; assay type: in vivo, rat; conditions: oral rifampin 20 mg/kg, from literature plasma concentration and protein binding ref 23, 39, 40
[6] = design: method as in PMID 25297453, PMID 22139693, PMID 26725427; conditions: rats, cited from earlier work
[7] = biological target: T1, OATP1B1; experiment: Inhibition of OATP1B1-mediated valsartan uptake in HEK293-OATP1B1 cells; assay type: cell-based; design: host or cells: HEK293; conditions: 5 μM valsartan, 5 min
Protocol: as §5

IC50 [1]: 28.6 µM | IC50 [2]: 0.81 µM | IC50 [4]: 3.6 µM | unbound concentration of rifampin [5]: 4.7 to 22.9 µM | IC50 [7]: 13.8 µM
Compound: CO[C@H]1/C=C/O[C@@]2(C)Oc3c(C)c(O)c4c(O)c(c(/C=N/N5CCN(C)CC5)c(O)c4c3C2=O)NC(=O)/C(C)=C\C=C\[C@H](C)[C@H](O)[C@@H](C)[C@@H](O)[C@@H](C)[C@H](OC(C)=O)[C@@H]1C [Rifampin, rifampin, reference compound]
protein binding of rifampin [3]: 23.1% | Cmax of rifampin ([6]; oral rifampin 20 mg/kg ref 23, 39, 40): 15700 to 24500 ng/mL | plasma concentration of rifampin ([6]; oral rifampin 20 mg/kg, for 12 h ref 23, 39, 40): over 5 μg/mL
